Measured values taken from patent US9067977B2, “Peptides derivatized with A-B-C-D- and their therapeutical use” (Novo Nordisk A/S, priority 2007, dated 2015).
Starred links: 1 amine or outer side, 2 acyl side, 3 side chain; linkers in the order of their positions; H or OH if unused. Non-standard residues stand in square brackets, D forms with d. Residues, ends and D or L forms follow the SMILES beside them. Groups on a side chain read outwards from the residue. *: point of attachment. X3 = O=C(O)CCCCCCCCCCCCCCCCCCC(=O)NC[C@H]1CC[C@H](C(=O)N[C@@H](CCC(=O)NCCOCCOCC(=O)NCCOCCOCC(=O)N[C@@H](CCCCN*)C(=O)O)C(=O)O)CC1; X2 = O=C(O)CCCCCCCCCCCCCCCCCCC(=O)NCC1CCC(C(=O)*)CC1; C20 diacid = O=C(O)CCCCCCCCCCCCCCCCCCC(=O)*; C18 diacid = O=C(O)CCCCCCCCCCCCCCCCC(=O)*; d(βAsp) = O=C(O)[C@@H](CC(=O)[*:2])N[*:1]; γGlu = O=C(O)[C@H](CCC(=O)[*:2])N[*:1]; Desaminohistidyl = O=C(CCc1c[nH]cn1)*; βAsp = O=C(O)[C@H](CC(=O)[*:2])N[*:1]; AEEA = NCCOCCOCC(=O)O; Aib = CC(C)(N)C(=O)O; Inp = O=C(O)C1CCNCC1; Bn = c1ccc(C*)cc1

Target: human serum albumin (HSA) (Homo sapiens, UniProt P02768)
Sequence (P02768 25-609): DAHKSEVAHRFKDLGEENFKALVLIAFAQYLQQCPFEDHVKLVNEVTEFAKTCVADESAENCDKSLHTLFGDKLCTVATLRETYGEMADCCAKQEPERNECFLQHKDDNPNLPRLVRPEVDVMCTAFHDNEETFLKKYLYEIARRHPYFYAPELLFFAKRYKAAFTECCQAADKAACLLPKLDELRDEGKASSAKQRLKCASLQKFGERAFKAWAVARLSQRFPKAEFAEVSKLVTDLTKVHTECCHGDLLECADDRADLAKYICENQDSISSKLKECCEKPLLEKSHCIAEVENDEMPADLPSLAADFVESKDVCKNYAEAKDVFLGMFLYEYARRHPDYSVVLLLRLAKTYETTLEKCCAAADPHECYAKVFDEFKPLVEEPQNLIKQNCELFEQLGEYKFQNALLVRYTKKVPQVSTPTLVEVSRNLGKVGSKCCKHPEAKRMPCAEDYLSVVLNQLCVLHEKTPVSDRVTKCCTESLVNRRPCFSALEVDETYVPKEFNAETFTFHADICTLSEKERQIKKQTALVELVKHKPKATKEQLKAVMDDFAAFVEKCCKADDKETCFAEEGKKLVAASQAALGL
Assay: Albumin binding affinity, competition scintillation proximity assay
Experimental: Streptavidin-SPA beads (GE Healthcare RPNQ0009) were incubated with biotinylated HSA for 5 hours. The beads were washed with buffer to remove unbound HSA. […] After 20 hours of gentle rocking at room temperature the plates were centrifuged and counted on a TopCounter.

SMILES	EC50 [µM]	EC50 at 20 h (human, biotinylated human serum albumin on streptavidin-SPA beads, pH 7.4) [µM]
CC[C@H](C)[C@H](NC(=O)[C@H](Cc1ccccc1)NC(=O)[C@H](CCC(=O)O)NC(=O)[C@H](CCCCNC(=O)COCCOCCNC(=O)CC[C@H](NC(=O)CC[C@H](NC(=O)CCCCCNC(=O)CCCS(=O)(=O)NC(=O)CCCCCCCCCCCCCCCc1nnn[nH]1)C(=O)O)C(=O)O)NC(=O)[C@H](C)NC(=O)[C@H](C)NC(=O)[C@H](CCC(N)=O)NC(=O)CNC(=O)[C@H](CCC(=O)O)NC(=O)[C@H](CC(C)C)NC(=O)[C@H](Cc1ccc(O)cc1)NC(=O)[C@H](CO)NC(=O)[C@H](CO)NC(=O)[C@@H](NC(=O)[C@H](CC(=O)O)NC(=O)[C@H](CO)NC(=O)[C@@H](NC(=O)[C@H](Cc1ccccc1)NC(=O)[C@@H](NC(=O)CNC(=O)[C@H](CCC(=O)O)NC(=O)C(C)(C)NC(=O)[C@@H](N)Cc1c[nH]cn1)[C@@H](C)O)[C@@H](C)O)C(C)C)C(=O)N[C@@H](C)C(=O)N[C@@H](Cc1c[nH]c2ccccc12)C(=O)N[C@@H](CC(C)C)C(=O)N[C@H](C(=O)N[C@@H](CCCNC(=N)N)C(=O)NCC(=O)N[C@@H](CCCNC(=N)N)C(N)=O)C(C)C [Example 41, N-epsilon26-[2-(2-{2-[(S)-4-Carboxy-4-((S)-4-carboxy-4-{6-[4-(16-(1H-tetrazol-5-yl)hexadecanoylsulfamoyl)butyrylamino]hexanoylamino}butyrylamino)butyrylamino]ethoxy}ethoxy)acetyl][Aib8,Arg34]GLP-1-(7-36)amide]	0.15 to 0.3	–
CC[C@H](C)[C@H](NC(=O)[C@H](Cc1ccccc1)NC(=O)[C@H](CCC(=O)O)NC(=O)[C@H](CCCNC(=N)N)NC(=O)[C@H](C)NC(=O)[C@H](C)NC(=O)[C@H](CCC(N)=O)NC(=O)[C@H](CCC(=O)O)NC(=O)[C@H](CCC(=O)O)NC(=O)[C@H](CC(C)C)NC(=O)[C@H](Cc1ccc(O)cc1)NC(=O)[C@H](CO)NC(=O)[C@H](CO)NC(=O)[C@@H](NC(=O)[C@H](CC(=O)O)NC(=O)[C@H](CO)NC(=O)[C@@H](NC(=O)[C@H](Cc1ccccc1)NC(=O)[C@@H](NC(=O)CNC(=O)[C@H](CCC(=O)O)NC(=O)[C@H](C)NC(=O)CCc1c[nH]cn1)[C@@H](C)O)[C@@H](C)O)C(C)C)C(=O)N[C@@H](C)C(=O)N[C@@H](Cc1c[nH]c2ccccc12)C(=O)N[C@@H](CC(C)C)C(=O)N[C@H](C(=O)N[C@@H](CCCNC(=N)N)C(=O)NCC(=O)N[C@@H](CCCNC(=N)N)C(=O)NCC(=O)N[C@@H](CCCCNC(=O)COCCOCCNC(=O)CC[C@H](NC(=O)C1CCN(C(=O)CCCCCCCCCCCCCCCCCCC(=O)O)CC1)C(=O)O)C(=O)O)C(C)C [Example 55, [DesaminoHis7,Glu22,Arg26,34]-GLP-1 (7-37)-Lys-(2-{2-[2-((S)-4-carboxy-4-{[1-(19-carboxynonadecanoyl)piperidine-4-carbonyl]amino}butyrylamino)ethoxy]ethoxy}acetyl) peptide] (Desaminohistidyl-AEGTFTSDVSSYLEEQAAREFIAWLVRGRGK([AEEA-γGlu-Inp-C20 diacid])-OH)	–	0.15 to 0.3
CC[C@H](C)[C@H](NC(=O)[C@H](Cc1ccccc1)NC(=O)[C@H](CCC(=O)O)NC(=O)[C@H](CCCNC(=N)N)NC(=O)[C@H](C)NC(=O)[C@H](C)NC(=O)[C@H](CCC(N)=O)NC(=O)CNC(=O)[C@H](CCC(=O)O)NC(=O)[C@H](CCCCNC(=O)COCCOCCNC(=O)COCCOCCNC(=O)C[C@@H](NC(=O)C1CCN(C(=O)CCCCCCCCCCCCCCCCC(=O)O)CC1)C(=O)O)NC(=O)[C@H](Cc1ccc(O)cc1)NC(=O)[C@H](CO)NC(=O)[C@H](CO)NC(=O)[C@@H](NC(=O)[C@H](CC(=O)O)NC(=O)[C@H](CO)NC(=O)[C@@H](NC(=O)[C@H](Cc1ccccc1)NC(=O)[C@@H](NC(=O)CNC(=O)[C@H](CCC(=O)O)NC(=O)C(C)(C)NC(=O)[C@@H](N)Cc1c[nH]cn1)[C@@H](C)O)[C@@H](C)O)C(C)C)C(=O)N[C@@H](CCC(=O)O)C(=O)N[C@@H](Cc1c[nH]c2ccccc12)C(=O)N[C@@H](CC(C)C)C(=O)N[C@H](C(=O)N[C@@H](CCCCN)C(=O)NCC(=O)N[C@@H](CCCNC(=N)N)C(=O)NCC(N)=O)[C@@H](C)OCc1ccccc1 [Example 8, N-ε^20({2-[2-(2-{2-[2-((R)-3-carboxy-3-{[1-(17-carboxyheptadecanoyl)piperidine-4-carbonyl]amino}propionylamino)ethoxy]ethoxy}acetylamino)ethoxy]ethoxy}acetyl) [Aib^8,Lys^20,Arg^28,Glu^30,Thr(O-benzyl)^33]GLP-1-(7-37)amide] (H-H[Aib]EGTFTSDVSSYK([AEEA-AEEA-d(βAsp)-Inp-C18 diacid])EGQAAREFIEWLT(Bn)KGRG-NH2; N-terminus assumed)	0.3 to 0.8	–
CC[C@H](C)[C@H](NC(=O)[C@H](Cc1ccccc1)NC(=O)[C@H](CCC(=O)O)NC(=O)[C@H](CCCNC(=N)N)NC(=O)[C@H](C)NC(=O)[C@H](C)NC(=O)[C@H](CCC(N)=O)NC(=O)[C@H](CCC(=O)O)NC(=O)[C@H](CCC(=O)O)NC(=O)[C@H](CC(C)C)NC(=O)[C@H](Cc1ccc(O)cc1)NC(=O)[C@H](CO)NC(=O)[C@H](CO)NC(=O)[C@@H](NC(=O)[C@H](CC(=O)O)NC(=O)[C@H](CO)NC(=O)[C@@H](NC(=O)[C@H](Cc1ccccc1)NC(=O)[C@@H](NC(=O)CNC(=O)[C@H](CCC(=O)O)NC(=O)[C@H](C)NC(=O)CCc1c[nH]cn1)[C@@H](C)O)[C@@H](C)O)C(C)C)C(=O)N[C@@H](C)C(=O)N[C@@H](Cc1c[nH]c2ccccc12)C(=O)N[C@@H](CC(C)C)C(=O)N[C@H](C(=O)N[C@@H](CCCNC(=N)N)C(=O)NCC(=O)N[C@@H](CCCNC(=N)N)C(=O)NCCCC[C@H](NC(=O)COCCOCCNC(=O)COCCOCCNC(=O)CC[C@H](NC(=O)[C@H]1CC[C@H](CNC(=O)CCCCCCCCCCCCCCCCCCC(=O)O)CC1)C(=O)O)C(=O)O)C(C)C [Example 53, N-alpha37-[2-(2-{2-[2-(2-{2-[(S)-4-Carboxy-4-({trans-4-[(19-carboxynonadecanoylamino)methyl]cyclohexanecarbonyl}amino)butyrylamino]ethoxy}ethoxy)acetylamino]ethoxy}ethoxy)acetyl][DesaminoHis7,Glu22,Arg26,Arg34,epsilon-Lys37]GLP-1-(7-37)] (Desaminohistidyl-AEGTFTSDVSSYLEEQAAREFIAWLVRGR-X3)	0.001 to 0.1	–
CC[C@H](C)[C@H](NC(=O)[C@H](Cc1ccccc1)NC(=O)[C@H](CCC(=O)O)NC(=O)[C@H](CCCNC(=N)N)NC(=O)[C@H](C)NC(=O)[C@H](C)NC(=O)[C@H](CCC(N)=O)NC(=O)[C@H](CCC(=O)O)NC(=O)[C@H](CCC(=O)O)NC(=O)[C@H](CC(C)C)NC(=O)[C@H](Cc1ccc(O)cc1)NC(=O)[C@H](CO)NC(=O)[C@H](CO)NC(=O)[C@@H](NC(=O)[C@H](CC(=O)O)NC(=O)[C@H](CO)NC(=O)[C@@H](NC(=O)[C@H](Cc1ccccc1)NC(=O)[C@@H](NC(=O)CNC(=O)[C@H](CCC(=O)O)NC(=O)C(C)(C)NC(=O)[C@@H](N)Cc1c[nH]cn1)[C@@H](C)O)[C@@H](C)O)C(C)C)C(=O)N[C@@H](C)C(=O)N[C@@H](Cc1c[nH]c2ccccc12)C(=O)N[C@@H](CC(C)C)C(=O)N[C@H](C(=O)N[C@@H](CCCNC(=N)N)C(=O)NCC(=O)N[C@@H](CCCNC(=N)N)C(=O)NCC(=O)N[C@@H](CCCCNC(=O)COCCOCCNC(=O)COCCOCCNC(=O)C[C@H](NC(=O)C1CCC(CNC(=O)CCCCCCCCCCCCCCCCCCC(=O)O)CC1)C(=O)O)C(N)=O)C(C)C (stereo partly drawn) [Example 22, [Aib8,Glu22,Arg26,Arg34]GLP-1-(7-37)Lys[2-(2-[2-(2-[2-(2-((S)-3-[4-([19-Carboxynonadecanoylamino]methyl)cyclohexylcarbonylamino]-3-carboxypropionylamino)ethoxy)ethoxy]acetylamino)ethoxy]ethoxy)acetyl]amide] (H-H[Aib]EGTFTSDVSSYLEEQAAREFIAWLVRGRGK([AEEA-AEEA-βAsp-X2])-NH2; N-terminus assumed)	0.15 to 0.3	–
CC[C@H](C)[C@H](NC(=O)[C@H](Cc1ccccc1)NC(=O)[C@H](CCC(=O)O)NC(=O)[C@H](CCCNC(=N)N)NC(=O)[C@H](C)NC(=O)[C@H](C)NC(=O)[C@H](CCC(N)=O)NC(=O)[C@H](CCC(=O)O)NC(=O)[C@H](CCC(=O)O)NC(=O)[C@H](CC(C)C)NC(=O)[C@H](Cc1ccc(O)cc1)NC(=O)[C@H](CO)NC(=O)[C@H](CO)NC(=O)[C@@H](NC(=O)[C@H](CC(=O)O)NC(=O)[C@H](CO)NC(=O)[C@@H](NC(=O)[C@H](Cc1ccccc1)NC(=O)[C@@H](NC(=O)CNC(=O)[C@H](CCC(=O)O)NC(=O)C(C)(C)NC(=O)[C@@H](N)Cc1c[nH]cn1)[C@@H](C)O)[C@@H](C)O)C(C)C)C(=O)N[C@@H](C)C(=O)N[C@@H](CCCCNC(=O)COCCOCCNC(=O)COCCOCCNC(=O)C[C@H](NC(=O)C1CCN(C(=O)CCCCCCCCCCCCCCCCCCC(=O)O)CC1)C(=O)O)C(=O)N[C@@H](CC(C)C)C(=O)N[C@H](C(=O)N[C@@H](CCCNC(=N)N)C(=O)NCC(=O)N[C@@H](CCCNC(=N)N)C(=O)NCC(=O)O)C(C)C [Example 15, N-epsilon31-(2-{2-[2-(2-{2-[2-((S)-3-Carboxy-3-{[1-(19-carboxy-nonadecanoyl)piperidine-4-carbonyl]amino}propionylamino)ethoxy]ethoxy}acetylamino)ethoxy]ethoxy}acetyl)[Aib8,Glu22,Arg26,Lys31,Arg34]GLP-1-(7-37)] (H-H[Aib]EGTFTSDVSSYLEEQAAREFIAK([AEEA-AEEA-βAsp-Inp-C20 diacid])LVRGRG-OH)	0.15 to 0.3	–
